# Experimental data reported in PubChem BioAssay AID192 (DTP/NCI, 2004).
# Several values for one entry are separate records, joined by “and”; a condition that tells them apart may be missing. Equal values may be shown once. Toxic doses and inconclusive results are not listed. Numbered stars: 1 amine (or outer) side, 2 acyl side, 3 side chain; on linkers, the order of the positions; unused ones are H or OH. Bridge positions count the residues as written; N and C are the ends. Square brackets hold non-standard residues; d marks the D form. Peptide text beside a SMILES is read from it. I, II: the chains in the order shown. Actinocin(9to1) = Cc1c2oc3c(C)ccc(C(=O)[*:1])c3nc-2c(C(=O)[*:2])c(N)c1=O; X2 = O=C(C1CC(Cl)CN1[*:1])[*:2]; NMeV = CN[CH](C(=O)O)C(C)C; Sar = CNCC(=O)O
# Test system: BDF1 mice, B16 melanoma ip, median survival T/C
# Assay: NCI In Vivo Anticancer Drug Screen. Data for tumor model B16 Melanoma (intraperitoneal) in B6D2F1 (BDF1) mice
# Conditions: endpoint: median survival time, higher = longer survival
# Outline: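 Mice with transplantable tumors; drug vs vehicle groups; endpoint survival or tumor size; value = T/C.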
# [1] = dose: 100.0 mg/kg/injection, schedule: Q01DX009 (ip), vehicle: Klucel (hydroxypropylcellulose) (HPC)
# [2] = dose: 200.0 mg/kg/injection, schedule: Q01DX009 (ip), vehicle: Klucel (hydroxypropylcellulose) (HPC)
# [3] = dose: 12.5 mg/kg/injection, schedule: Q01DX009 (ip), vehicle: Klucel (hydroxypropylcellulose) (HPC)
# [4] = dose: 25.0 mg/kg/injection, schedule: Q01DX009 (ip), vehicle: Klucel (hydroxypropylcellulose) (HPC)
# [5] = dose: 50.0 mg/kg/injection, schedule: Q01DX009 (ip), vehicle: Klucel (hydroxypropylcellulose) (HPC)
# [6] = dose: 12.5 mg/kg/injection, schedule: Q01DX009 (ip), vehicle: saline with Tween-80
# [7] = dose: 25.0 mg/kg/injection, schedule: Q01DX009 (ip), vehicle: saline with Tween-80
# [8] = dose: 6.25 mg/kg/injection, schedule: Q01DX009 (ip), vehicle: saline
# [9] = dose: 12.5 mg/kg/injection, schedule: Q01DX009 (ip), vehicle: saline
# [10] = dose: 25.0 mg/kg/injection, schedule: Q01DX009 (ip), vehicle: saline
# [11] = dose: 50.0 mg/kg/injection, schedule: Q01DX009 (ip), vehicle: saline
# [12] = dose: 100.0 mg/kg/injection, schedule: Q01DX009 (ip), vehicle: saline
# [13] = dose: 100.0 mg/kg/injection, schedule: Q04DX003 (ip), vehicle: Klucel (hydroxypropylcellulose) (HPC)
# [14] = dose: 400.0 mg/kg/injection, schedule: Q04DX003 (ip), vehicle: Klucel (hydroxypropylcellulose) (HPC)
# [15] = dose: 200.0 mg/kg/injection, schedule: Q01DX009 (ip), vehicle: saline
structure (smiles),measurement,setting,value
Cc1ccc(CNc2ccc(Br)cc2)cc1,T/C,[1],94 % of control
same,T/C,[2],91 % of control
O/N=C1\CCCC\C1=N/O.O/N=C1\CCCC\C1=N/O.[Pd],T/C,"dose: 25.0 mg/kg/injection, schedule: Q04DX003 (ip), vehicle: other",101 % of control
same,T/C,"dose: 50.0 mg/kg/injection, schedule: Q04DX003 (ip), vehicle: other",91 % of control
same,T/C,"dose: 100.0 mg/kg/injection, schedule: Q04DX003 (ip), vehicle: other",93 % of control
S=c1[nH]c2ccccc2s1,T/C,"dose: 25.0 mg/kg/injection, schedule: Q01DX009 (ip), vehicle: carboxymethylcellulose (CMC)",105 % of control
same,T/C,"dose: 50.0 mg/kg/injection, schedule: Q01DX009 (ip), vehicle: carboxymethylcellulose (CMC)",103 % of control
same,T/C,"dose: 100.0 mg/kg/injection, schedule: Q01DX009 (ip), vehicle: carboxymethylcellulose (CMC)",109 % of control
Cc1ccc(C)c(NS(=O)(=O)c2ccc(Cl)cc2)c1,T/C,[1],93 % of control
same,T/C,[2],92 % of control
Cn1c(O)c(/C=C2\C=Nc3ccccc32)n(C)c1=N,T/C,[3],96 % of control
same,T/C,[4],100 % of control
same,T/C,[5],101 % of control
same,T/C,[1],97 % of control
ClCCN(CCCl)CCCN1c2ccccc2Sc2ccc(Cl)cc21,T/C,"dose: 3.12 mg/kg/injection, schedule: Q01DX009 (ip), vehicle: saline with Tween-80",120 % of control
same,T/C,[6],120 % of control
same,T/C,[7],117 % of control
"Cc1c2oc3c(C)ccc(C(=O)NC4C(=O)NC(C(C)C)C(=O)N5CC(Cl)CC5C(=O)N(C)CC(=O)N(C)C(C(C)C)C(=O)OC4C)c3nc-2c(C(=O)NC2C(=O)NC(C(C)C)C(=O)N3CC(Cl)CC3C(=O)N(C)CC(=O)N(C)C(C(C)C)C(=O)OC2C)c(N)c1=O (stereo not drawn) (I: TV[X2][Sar][NMeV] / II: TV[X2][Sar][NMeV]; ester I:1-I:C, II:1-II:C; linker I:N-II:N via Actinocin(9to1); configuration not given here)",T/C,"dose: 1080.0 micrograms/kg/injection, schedule: Q04DX003 (ip), vehicle: saline + alcohol",159 % of control
same,T/C,"dose: 1800.0 micrograms/kg/injection, schedule: Q04DX003 (ip), vehicle: saline + alcohol",160 % of control
CCCCCCCC(=O)OCC(=O)[C@]1(O)Cc2c(O)c3c(c(O)c2[C@@H](OC2CC(N)C(O)C(C)O2)C1)C(=O)c1c(OC)cccc1C3=O (stereo partly drawn),T/C,"dose: 0.25 mg/kg/injection, schedule: Q01DX009 (ip), vehicle: saline with Tween-80",176 % of control
same,T/C,"dose: 0.5 mg/kg/injection, schedule: Q01DX009 (ip), vehicle: saline with Tween-80",222 % of control
same,T/C,"dose: 1.0 mg/kg/injection, schedule: Q01DX009 (ip), vehicle: saline with Tween-80",151 % of control and 212 % of control
same,T/C,"dose: 1.25 mg/kg/injection, schedule: Q01DX001 (ip), vehicle: water",170 % of control
same,T/C,"dose: 2.0 mg/kg/injection, schedule: Q01DX009 (ip), vehicle: saline with Tween-80",150 % of control and 274 % of control
same,T/C,"dose: 2.5 mg/kg/injection, schedule: Q01DX001 (ip), vehicle: water",117 % of control (2×) and 214 % of control
same,T/C,"dose: 5.0 mg/kg/injection, schedule: Q01DX001 (ip), vehicle: water",97 % of control and 252 % of control
same,T/C,"dose: 10.0 mg/kg/injection, schedule: Q01DX001 (ip), vehicle: water",227 % of control
same,T/C,"dose: 20.0 mg/kg/injection, schedule: Q01DX001 (ip), vehicle: water",122 % of control
same,T/C,"dose: 1440.0 micrograms/kg/injection, schedule: Q01DX004 (ip), vehicle: other",115 % of control
same,T/C,"dose: 2400.0 micrograms/kg/injection, schedule: Q01DX004 (ip), vehicle: other",110 % of control
same,T/C,"dose: 4000.0 micrograms/kg/injection, schedule: Q01DX004 (ip), vehicle: other",122 % of control
CC1(C)N=C(N)N=C(N)N1c1ccc(OCc2ccc(C(=O)Nc3cccc(S(=O)(=O)F)c3)cc2)c(Cl)c1,T/C,"dose: 12.5 mg/kg/injection, schedule: Q04DX003 (ip), vehicle: saline with Tween-80",119 % of control
same,T/C,"dose: 50.0 mg/kg/injection, schedule: Q04DX003 (ip), vehicle: saline",166 % of control
O=C(NCCCN1CCN(CCCNC(=O)c2cccnc2)CC1)c1cccnc1,T/C,[8],107 % of control
same,T/C,[9],107 % of control
same,T/C,[10],112 % of control
same,T/C,[11],104 % of control
same,T/C,[12],95 % of control
CN(C)CC(CN1c2ccccc2Sc2ccccc21)N(C)C (stereo not drawn),T/C,"dose: 3.12 mg/kg/injection, schedule: Q01DX009 (ip), vehicle: saline",102 % of control
same,T/C,[8],107 % of control
same,T/C,[9],107 % of control
same,T/C,[10],120 % of control
same,T/C,[11],105 % of control
ClCCCCCCCCCCCl,T/C,[3],111 % of control
same,T/C,[4],100 % of control
same,T/C,"dose: 25.0 mg/kg/injection, schedule: Q04DX003 (ip), vehicle: Klucel (hydroxypropylcellulose) (HPC)",100 % of control
same,T/C,[5],95 % of control
same,T/C,"dose: 50.0 mg/kg/injection, schedule: Q04DX003 (ip), vehicle: Klucel (hydroxypropylcellulose) (HPC)",100 % of control
same,T/C,[13],104 % of control
O=C(O)c1cc2ccccc2cn1,T/C,[11],102 % of control
same,T/C,[12],100 % of control
COc1ccc(C2CCC(=O)CC2C(=O)O)cc1 (stereo not drawn),T/C,[13],94 % of control
same,T/C,[14],100 % of control
C(COCCOCC1CO1)OCCOCC1CO1 (stereo not drawn),T/C,[6],101 % of control
same,T/C,[7],105 % of control
same,T/C,"dose: 50.0 mg/kg/injection, schedule: Q01DX009 (ip), vehicle: saline with Tween-80",103 % of control
same,T/C,[11],107 % of control
same,T/C,"dose: 100.0 mg/kg/injection, schedule: Q01DX009 (ip), vehicle: saline with Tween-80",109 % of control
same,T/C,[12],108 % of control and 110 % of control
same,T/C,"dose: 200.0 mg/kg/injection, schedule: Q01DX009 (ip), vehicle: saline with Tween-80",99 % of control
same,T/C,[15],86 % of control
C[N+](C)(C)c1nc(N)nc2c1ncn2C1OC(CO)C(O)C1O (stereo not drawn),T/C,[11],106 % of control
same,T/C,[12],103 % of control
same,T/C,[15],109 % of control
C=CCNc1ccc(C)cc1,T/C,[3],105 % of control
same,T/C,[4],96 % of control
same,T/C,[5],88 % of control
same,T/C,[1],91 % of control
CN(C)CC(C(=O)Cc1ccccc1)c1ccccc1 (stereo not drawn),T/C,[10],93 % of control
same,T/C,[11],88 % of control
same,T/C,[12],97 % of control
NC(CCl)=NCC12CC3CC(CC(C3)C1)C2,T/C,"dose: 3.0 mg/kg/injection, schedule: Q01DX009 (ip), vehicle: Klucel (hydroxypropylcellulose) (HPC)",110 % of control
same,T/C,"dose: 3.12 mg/kg/injection, schedule: Q01DX009 (ip), vehicle: Klucel (hydroxypropylcellulose) (HPC)",100 % of control
same,T/C,"dose: 6.0 mg/kg/injection, schedule: Q01DX009 (ip), vehicle: Klucel (hydroxypropylcellulose) (HPC)",100 % of control
same,T/C,"dose: 12.0 mg/kg/injection, schedule: Q01DX009 (ip), vehicle: Klucel (hydroxypropylcellulose) (HPC)",107 % of control
same,T/C,"dose: 24.0 mg/kg/injection, schedule: Q01DX009 (ip), vehicle: Klucel (hydroxypropylcellulose) (HPC)",102 % of control
same,T/C,"dose: 48.0 mg/kg/injection, schedule: Q01DX009 (ip), vehicle: Klucel (hydroxypropylcellulose) (HPC)",120 % of control
Cc1c2cc[n+](C)c(C)c2cc2c1[nH]c1ccccc12,T/C,"dose: 10.0 mg/kg/injection, schedule: Q04DX003 (ip), vehicle: water",95 % of control
same,T/C,"dose: 20.0 mg/kg/injection, schedule: Q04DX003 (ip), vehicle: water",92 % of control
same,T/C,"dose: 40.0 mg/kg/injection, schedule: Q04DX003 (ip), vehicle: water",94 % of control
COc1ccc(NC(=O)O/N=C2\CN(S(=O)(=O)c3ccc(C)cc3)CCc3ccccc32)cc1,T/C,[13],102 % of control
same,T/C,"dose: 200.0 mg/kg/injection, schedule: Q04DX003 (ip), vehicle: Klucel (hydroxypropylcellulose) (HPC)",97 % of control
same,T/C,[14],88 % of control
O=C(O)c1ccccc1C(=O)Nc1cc(Cl)ccc1Cl,T/C,[5],100 % of control
same,T/C,[1],94 % of control
CCOC(=O)NNC(N)=S,T/C,[1],100 % of control
same,T/C,[2],93 % of control
same,T/C,"dose: 400.0 mg/kg/injection, schedule: Q01DX009 (ip), vehicle: Klucel (hydroxypropylcellulose) (HPC)",93 % of control
COc1cc(/C=N/NC(=O)N/N=C/c2cc(OC)c(OC)c(OC)c2)cc(OC)c1OC,T/C,[1],93 % of control
same,T/C,[2],90 % of control
CC(C)(O)C(I)C[n+]1ccccc1 (stereo not drawn),T/C,"dose: 100.0 mg/kg/injection, schedule: Q04DX003 (ip), vehicle: saline",109 % of control
same,T/C,"dose: 200.0 mg/kg/injection, schedule: Q04DX003 (ip), vehicle: saline",101 % of control
same,T/C,"dose: 400.0 mg/kg/injection, schedule: Q04DX003 (ip), vehicle: saline",114 % of control
